# Reference: patent publication US20240208950A1, “COMPOSITIONS AND METHODS FOR TREATMENT OF CERVICAL AND OVARIAN CANCER” (SOUTH DAKOTA BOARD OF REGENTS, priority 2021, published 2024)
# How the values were obtained:
# Type in all cases: cell-based, human
# SiHa cells = assay: Colony formation assay, SiHa; settings: SiHa, 2.5, 5 and 7.5 μM
# Description: FIGS. 5A and 5B show representative colony images of CaSki cells (FIG. 5A) and SiHa cells (FIG. 5B) treated with various concentrations of ORM-Br ranging from […]. FIGS. 5C and 5D represent the quantification of colony formation in CaSki cells (FIG. 5C) and SiHa cells (FIG. 5D) treated with various concentrations of ORM-Br ranging from 0 to 7.5 μM.
# To determine the effect of Br-ORM on clonogenic potential of CaSki and SiHa cells, a colony formation assay was performed. In brief, 500 cells were seeded per well in a 6-well plate and allowed to stand for the next three days. The cells were treated with Br-ORM with different concentrations (2.5, 5, and 7.5 μM) for seven days and then followed by normal growth media. […] Colonies were fixed in methanol, stained with haematoxylin, and counted using UVP 810 software.
# FIG. 13. […] Cell viability was assessed by MTS assay. […] Bar graphs indicating quantification of colony formation in CaSki (i), and SiHa (ii) cells of cervical cancer with respect to vehicle control. […] Briefly, cervical cancer cells were treated with Br-ORM (10 μM) for 24 hours and the apoptosis inducing effect of Br-ORM was analyzed by Annexin V staining. […] The equal loading of protein in each lane was determined by probing the blots with β-actin antibody (FIG. 13F). […] Br-ORM arrests cell cycle in G1/S phase as determined by flow cytometry. […]
# CaSki cells = assay: Apoptosis analysis by Annexin V staining, CaSki; settings: 10 μM, 24 hours
# Description: The apoptosis inducing effect of Br-ORM on cervical cells was analyzed by Annexin V-FLUOS staining kit (Roche Diagnostic Corp. Indianapolis, IN, USA). The procedure was followed as described in the vendor's protocol. Briefly, 60% confluent cervical cancer cells (CaSki and SiHa) were treated with Br-ORM (10, 15, and 20 μM) and kept in a CO2 incubator at 37° C. for 24 hours. Control group cells were treated with DMSO as the vehicle. Cells were washed with PBS (1×) and kept in Annexin-V solution for 20 minutes. Images were captured in bright and green field by fluorescent microscope.
# It was observed that Br-ORM exerts potent growth inhibitory effects, so the effect of Br-ORM on apoptosis induction was further examined. Cervical cancer cells were treated with Br-ORM (10 μM) for 24 hours and the apoptosis inducing effect of Br-ORM was analyzed by Annexin V staining and Western blot analysis for cleavage in PARP protein.
# [1] = system: miR-200a in cervical cancer cells; assay: qRT-PCR of miR-200a; settings: qPCR, 24 hours
# Description: RNA from cervical cancer cells was isolated using Qiagen kit and quantified using NanoDrop instrument 2000 (Thermo Scientific, Waltham, MA, USA). To analyze the expression of miR-200a in control and Br-ORM treated cells, 100 ng total RNA was reverse transcribed into cDNA using specific primers designed for miRNA analysis (Applied Biosystems, Foster City, CA, USA). The expression of this miRNAs was determined by qRT-PCR using the Taqman PCR master mixture and specific primers designed for detection of mature miRNAs (Applied Biosystems). The expression of miRNA was normalized with the expression of endogenous control, RNU6B.
# Modulations of microRNAs are involved in cervical cancer development, progression and metastasis. It is reported that expression of β-catenin is directly regulated by miR-200a. Br-ORM targets β-catenin signaling, therefore, to further understand the underlying mechanisms, the expression of miR-200a following the Br-ORM treatment was evaluated.
# FIG. 16. Effect of Br-ORM on HPV oncoproteins and tumor suppressor miR-200 in cervical cancer cells. […] Increase expression of tumor suppressor miR200a in cervical cancer cells treated with BR-ORM for 24 hours in comparison to non-treated controls was determined through real time PCR (FIG. 16A(v)-(vii)). […]
smiles,measurement,setting,value
COc1ccc2c(c1)OC(C)(C)C(c1ccc(Br)cc1)C2c1ccc(OCCN2CCCC2)cc1 (stereo not shown) [ORM-Br],colony formation (clonogenic potential),SiHa cells,suppresses the clonogenic potential
same,colony formation (clonogenic potential),SiHa cells; listed as Br-ORM,significantly decreased the number of colonies
same,apoptosis induction (Annexin V staining),CaSki cells,induced apoptosis
same,expression of miR-200a,[1],significant (P<0.05) increase
